Assays:
Assay type in all cases: cell-based
U-937-vcr = experiment: FMCA, U-937-vcr vincristin-resistant lymphoma; details: read-out: EC50 (μM) in various cancer cell lines: U-937-ver
Description: (§1) The Fluorometric Microculture Cytotoxicity Assay, FMCA, is a three day non-clonogenic microplate-based cell viability assay used for measurement of the cytotoxic and/or cytostatic effect of compounds in vitro (Lindhagen, E., et al. Nat Protoc, 2008. 3(8): p. 1364-9). FMCA (Larsson, R. and P. Nygren, Anticancer Res, 1989. 9(4): p. 1111-9) represents a valuable method to measure cytotoxicity in a number of cell types, both cell lines and primary cells from patients (Larsson, R., et al., Int J Cancer, 1992. 50(2): p. 177-85; Fridborg, H., et al., Eur J Cancer, 1999. 35(3): p. 424-32; Dhar, S., et al., Br J Cancer, 1996. 74(6): p. 888-96).
(§2) FMCA is based on the principle that fluorescein diacetate (FDA) is converted to the fluorescent probe fluorescein by esterases in the plasma membranes of living cells. For experiments, 96 or 384-well microplates are prepared with compounds and stored at −70° C. until use. Cells are then seeded into the drug-prepared plates and placed in an incubator for 72 h. On the last day of incubation, the plates are washed and a buffer containing FDA is added and incubated with the cells for 45 minutes. Finally the fluorescence per well is measured in a fluorometer and a Survival Index % (SI) for each compound-treated well is calculated with the equation: Compound-treated cells minus blank divided by control cells minus blank. A high SI-value indicates a large percentage of living cells and vice versa.
(§3) Compounds of the invention as well as kinase inhibitors sorafenib, sunitinib, dasatinib, and pazopanib (reference compounds) were diluted with PBS to a concentration which was ten-times higher than the desired starting concentration. Then, a Biomek 2000 liquid handling system was employed to serially dilute the compounds in a deep-well 384-well plate. From this plate, assay plates containing 5 μl compound per well were prepared with the Biomek 2000. Certain compounds precipitated when diluted with PBS, and these compounds were therefore prepared in a 96-well plate manually as described above using culture medium RPMI 1640 instead of PBS.
(§4) The compounds were also tested at five concentrations, with five times serial dilution on the following cell types: CCRF-CEM, hTERT-RPE1 (normal retinal epithelial cells), hRPTEpiC (normal renal cells) and PBMC (peripheral blood mononuclear cells). Each experiment was performed three times, except for PBMC and hRPTEpiC, which were performed twice. SI-values were calculated, graphs were plotted using GraphPadPrism 5.0 (GraphPad Software Inc. La Jolla, Calif.) and EC50-values for each cell type and compound were determined from the curves.
(§5) The compounds of the invention were also tested on further cancer cell lines related to colon cancer (HCT116; see e.g Brattain M G, et al. Cancer Res. 1981, 41, 1751-1756), breast cancer (MCF7; see e.g. Soule H D, et al. J. Natl. Cancer Inst. 1973, 51, 1409-1416), teniposide-resistant leukaemia (CEM/VM1; see e.g. Danks M K et al. Cancer Res. 1987, 47, 1297-1301), lung cancer (H69; see e.g. Gazdar A F, et al. Cancer Res. 1980, 40, 3502-3507), doxorubicin-resistant lung cancer (H69AR; see e.g. Mirski S E, et al. Cancer Res. 1987, 47, 2594-2598), myeloma (RPMI 8226; see e.g. Matsuoka Y, et al. Proc. Soc. Exp. Biol. Med. 1967, 125, 1246-1250), doxorubicin-resistant myeloma (8226/Dox40; see e.g. Dalton W S et al. Blood 1989, 15,747-752), lymphoma (U-937, see e.g. Sundstrom C, et al. Int. J. Cancer 1976, 17, 565-577), vincristin-resistant lymphoma (U-937-vcr; see e.g. Botling J, et al. Int J Cancer 1994, 15; 58 (2), 269-274), ovarian cancer (A2780; see e.g. Hamilton T C, et al. Semin Oncol. 1984, 11, 285-298), doxorubicin-resistant ovarian cancer (A2780/Adr), cisplatin-resistant ovarian cancer (A2780/Cis; see e.g. Behrens B C, et al. Cancer Res. 1987, 47, 414-418), renal cancer (ACHN; see e.g. Borden E C, et al. Cancer Res. 1982, 42(12), 4948-4953), pancreatic cancer (PANC-1, BxPC-3, and MIA PaCa-2; see e.g. Lieber M, et al. Int. […]

PANC-1 = experiment: FMCA, PANC-1 pancreatic cancer; details: Homo sapiens, read-out: EC50 (μM) in various cancer cell lines: PANC-1
Description: as §1
as §2, with “versa. […]” for “versa.”
as §4, with “Each experiment was performed three times, except for PBMC and hRPTEpiC, which were performed twice.” left out, “curves. […]” for “curves.”

A2780 = experiment: FMCA, A2780 ovarian cancer; details: Homo sapiens, read-out: EC50 (μM) in various cancer cell lines: A2780
Description: as §1, §2, §3, §4, §5

8226/Dox40 = experiment: FMCA, 8226/Dox40 doxorubicin-resistant myeloma; details: read-out: EC50 (μM) in various cancer cell lines: 8226/Dox40
Description: as §1, §2, §3, §4, §5

ACHN = experiment: FMCA, ACHN renal cancer; details: Homo sapiens, read-out: EC50 (μM) in various cancer cell lines: ACHN
Description: as §1, §2, §3, §4, §5

U-937 = experiment: FMCA, U-937 lymphoma; details: Homo sapiens, read-out: EC50 (μM) in various cancer cell lines: U-937
Description: as §1, §2, §3, §4, §5

RPMI 8226 = experiment: FMCA, RPMI 8226 myeloma; details: Homo sapiens, read-out: EC50 (μM) in various cancer cell lines: RPMI 8226
Description: as §1, §2, §3, §4, §5

CEM/VM1 = experiment: FMCA, CEM/VM1 teniposide-resistant leukaemia; details: Homo sapiens, read-out: EC50 (μM) in various cancer cell lines: CEM/VM1
Description: as §1, §2, §3, §4, §5

EC50 (U-937-vcr): 1.81 µM
EC50 (PANC-1): < 1 µM
EC50 (A2780): 1.59 µM
EC50 (8226/Dox40): 46.3 µM
EC50 (ACHN): 25.2 µM
EC50 (U-937): 1.47 µM
EC50 (RPMI 8226): 12.8 µM
EC50 (CEM/VM1): 1.33 µM
Structure (SMILES): c1cc(Nc2nccc(NCc3ccc4[nH]cnc4c3)n2)c2cc[nH]c2c1 [Example 19, N^4-(1H-benzo[d]imidazol-5-ylmethyl)-N^2-(1H-indol-4-yl)pyrimidine-2,4-diamine]

Source: patent US8927547B2, “Pyrimidine derivatives” (Noviga Research AB, priority 2010, dated 2015)
